Assay results published in patent publication US5830851A (Affymax Technologies N.V., priority 1995, dated 1998).
Residues, ends and D or L forms follow the SMILES beside them.

Experiments:
[1] = target: T1, murine receptor (FDC-P1/ER cells) (Mus musculus, UniProt P14753); assay: Peptide dependent growth of the EPO-responsive cell line FDC-P1/ER (thymidine incorporation); assay type: cell-based
T1 construct: expressed in transfected cells; host or cells: FDC-P1 (murine bone marrow derived cell line)
T1 sequence (P14753 25-507): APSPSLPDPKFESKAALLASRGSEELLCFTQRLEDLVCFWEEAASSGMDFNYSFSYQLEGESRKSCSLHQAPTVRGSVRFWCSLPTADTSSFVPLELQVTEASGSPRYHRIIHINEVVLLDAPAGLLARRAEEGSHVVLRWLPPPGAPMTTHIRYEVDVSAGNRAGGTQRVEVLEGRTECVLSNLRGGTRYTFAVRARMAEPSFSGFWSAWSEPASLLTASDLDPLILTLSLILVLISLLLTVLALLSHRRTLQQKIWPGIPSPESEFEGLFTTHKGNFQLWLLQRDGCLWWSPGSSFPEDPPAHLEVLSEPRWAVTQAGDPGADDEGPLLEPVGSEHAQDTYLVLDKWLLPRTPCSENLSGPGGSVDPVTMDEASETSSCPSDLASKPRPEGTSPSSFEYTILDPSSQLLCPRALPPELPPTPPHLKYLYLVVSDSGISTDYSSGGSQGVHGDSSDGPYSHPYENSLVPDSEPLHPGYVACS
Experimental: Sample Preparation: Peptides were resuspended in DMSO as a 1×10^-2 M stock solution and serially diluted in 10-fold increments to generate the following 100× solutions: [formula]
Two μl of each stock dilution was added to a cell well as described below in a total volume of 200 μl to generate final concentrations as follows: [formula]
Cells are counted and resuspended at a concentration of 800,000 cells/ml. Approximately forty thousand cells (50μ) are added to each well of a 96 well microtiter plate. Peptide is added to each well in triplicate. A standard dose response determination is run with each series of peptides. After a forty-two hr incubation (≈2 doubling), each well is pulsed with 1 μCi/well Thymidine. Cells are incubated an additional six hr at which time cells are harvested and counted to assess thymidine incorporation as an indicator of cell proliferation.

FDCP-1/muER cells = assay: Peptide-induced initiation of cell cycle measured by DNA content; assay type: cell-based, murine; conditions: 10 U/ml EPO, ten hours postinduction
Experimental: 1. Experimental Protocol: FDCP-1/muER cells were grown to stationery phase≈3.0×10^6 cells/ml. […] Three million cells were collected at the following time points: 0, 6, 8, 10, and 12 hr. (see, FIG. 15). Cells were washed twice in cold PBS and fixed by resuspending the cell pellet in 100 μl of cold PBS followed by 900 μl of cold 70% ethanol. Cells were stained with 50 μg/ml of propidium iodine and fluorescence was measured on FACS Scan Flow cytometer. The percentage of cells in each phase was measured using the SOBR model of CellFIT software, by Becton Dickinson.

[2] = test system: human peripheral blood mononuclear cells; assay: Colony assay, human peripheral blood; assay type: cell-based
Experimental: (§1) A ten milliliter sample of peripheral blood was obtained from a healthy individual in a standard sterile heparin vacutainer tube. Murine bone marrow was obtained from the femurs of approximately 10 mice per experiment. All reagents were obtained from Stem Cell Technologies Inc. (Vancouver, Canada).
(§2) a. Experimental Protocol: Briefly, a nucleated cell count was performed to establish the number and concentration of nucleated cells in the original sample. In the case of peripheral blood, the sample is subjected to centrifugation through a Ficoll-Hypaque (1.077 g per ml) gradient at 400 g for 30 minutes at room temperature. Mononuclear cells at the interface of the Ficoll-Hypaque solution are carefully removed and diluted to a total volume of about 10 ml. The cells obtained from murine bone marrow or human peripheral blood were collected by centrifugation and the supernatant was decanted. The pelleted cells were resuspended in fresh medium and subjected to collection as described above. The washed cells were diluted in Iscove's medium/2% fetal bovine serum to the following concentration for plating:
Cells were added to methyl cellulose per directions of the manufacturer. […] Equivalent cell numbers were plated in "Complete" methylcellulose medium to assess maximal colony formation. A control plate was run with each assay minus EPO and peptide to determine background colony formation. […]

murine bone marrow cells = assay: Colony assay, murine bone marrow; assay type: cell-based; conditions: EPO
Experimental: as §1, §2
Cells were added to methyl cellulose per directions of the manufacturer. […] Equivalent cell numbers were plated in "Complete" methylcellulose medium to assess maximal colony formation. A control plate was run with each assay minus EPO and peptide to determine background colony formation. Colonies were scored after both 10 days and 18 days of incubation.

[3] = set up 2/10/94, scored 2/23/94, EPO 3U/ml
[4] = set up 2/10/94, scored 2/23/94, EPO (METHOCULT)
[5] = set up 2/10/94, scored 3/4/94, EPO 3U/ml
[6] = set up 2/10/94, scored 3/4/94, EPO (METHOCULT)
[7] = Table 14, 1/28/94 experiment, scored 2/10/94
[8] = Table 14, 1/28/94 experiment, scored 2/21/94
[9] = Table 15, 2/21/94 experiment, scored 3/1/94
[10] = Table 15, 2/21/94 experiment, scored 3/14/94

Which EC50 [1] does the source give for `CC(C)C[C@@H]1NC(=O)[C@@H]2CCCN2C(=O)CNC(=O)[C@H](Cc2ccccc2)NC(=O)[C@H](Cc2c[nH]cn2)NC(=O)[C@@H](NC(=O)[C@H](CO)NC(=O)[C@@H](N)Cc2ccc(O)cc2)CSSC[C@@H](C(N)=O)NC(=O)[C@H](C(C)C)NC(=O)[C@H](Cc2c[nH]c3ccccc23)NC(=O)[C@H]([C@@H](C)O)NC1=O` [RWJ 61477] (HELM PEPTIDE1{Y.S.C.H.F.G.P.L.T.W.V.C.[am]}$PEPTIDE1,PEPTIDE1,3:R3-12:R3$$$V2.0) here?
The EC50 was 1000 nM.

What does the source list for “EPO: Erythropoietin, a glycoprotein hormone with 165 amino acids; recombinant standard”?
cells in S phase (FDCP-1/muER cells): approximately 45%; CFU-E [2, 3]: 7; MBFU-E [2, 3]: 7; CFU-E [2, 4]: 11; MBFU-E [2, 4]: 25; CFU-E [2, 5]: 4; CFU-GM [2, 5]: 3; MBFU-E [2, 5]: 7; PBFU-E [2, 5]: 7; CFU-E [2, 6]: 1; CFU-GM [2, 6]: 9; MBFU-E [2, 6]: 11; PBFU-E [2, 6]: 13; BFU-E colony-forming cell numbers (murine bone marrow cells; [7]): 5; CFU-E colony-forming cell numbers (murine bone marrow cells; [7]): 23; CFU-GM colony-forming cell numbers (murine bone marrow cells; [7]): 3; BFU-E colony-forming cell numbers (murine bone marrow cells; [8]): 30; CFU-E colony-forming cell numbers (murine bone marrow cells; [8]): 0; CFU-GM colony-forming cell numbers (murine bone marrow cells; [8]): 3; BFU-E colony-forming cell numbers (murine bone marrow cells; [9]): 3; CFU-E colony-forming cell numbers (murine bone marrow cells; [9]): 3; CFU-GM colony-forming cell numbers (murine bone marrow cells; [9]): > 10; CFU-E colony-forming cell numbers (murine bone marrow cells; [10]): 0; CFU-GM colony-forming cell numbers (murine bone marrow cells; [10]): 26; MBFU-E colony-forming cell numbers (murine bone marrow cells; [10]): 0; PBFU-E colony-forming cell numbers (murine bone marrow cells; [10]): 10
